{"source": "patent US9141756B1", "about": "“Multi-scale complex systems transdisciplinary analysis of response to therapy” (University of Southern California, priority 2010, dated 2015)", "key": {"Eμ-myc lymphomas": {"test_system": "Eμ-myc lymphomas", "settings": "cited from earlier work"}, "[1]": {"test_system": "A431-sensitive cancer cell line", "assay": "SILAC proteomic profiling of response to gefitinib"}}, "note": "Where two headings read alike, the source gives them in different places."}
{"smiles": "O=P1(N(CCCl)CCCl)NCCCO1", "note": "(stereo not shown) [CTX, cyclophosphamide]", "values": [{"measurement": "Phenotype: response to CTX", "setting": "Eμ-myc lymphomas; Eμ-Myc genotype", "value": "variable response to CTX"}, {"measurement": "Phenotype: response to CTX", "setting": "Eμ-myc lymphomas; Eμ-Myc/Arf −/− genotype (lymphoma lacking ARF)", "value": "slightly resistant to CTX"}, {"measurement": "Phenotype: response to CTX", "setting": "Eμ-myc lymphomas; Eμ-Myc/Bcl2 genotype", "value": "medium resistant to CTX"}, {"measurement": "Phenotype: response to CTX", "setting": "Eμ-myc lymphomas; Eμ-Myc/p53 −/− genotype (lymphoma lacking p53)", "value": "highly resistant to CTX"}]}
{"smiles": "COc1cc2ncnc(Nc3ccc(F)c(Cl)c3)c2cc1OCCCN1CCOCC1", "note": "[geftinib, gefitinib]", "values": [{"measurement": "proteins showing a statistically significant change in abundance following treatment", "setting": "[1]; A431 cells, SILAC", "value": 400}, {"measurement": "potential cell-surface biomarkers showing changes in abundance in response to therapy", "setting": "[1]; both in vitro and in vivo (xenograft)", "value": "Ten"}, {"measurement": "additional proteins showing changes in the secretome and serum", "setting": "[1]; secretome and serum", "value": "seven"}]}
